The record followed here is article PMC10683482, “Offsetting Low-Affinity Carbohydrate Binding with Covalency to Engage Sugar-Specific Proteins for Tumor-Immune Proximity Induction” (ACS Central Science, 2023).

Assay [1] deals with serum polyclonal antirhamnose antibodies (human IgG). The assay can be described thus: BLI affinity of rhamnose probes for polyclonal human IgG. It is filed as binding. The following applies: for kon: anti-rhamnose assumed 3% of total IgG; for koff: dissociation in 100 mM L-rhamnose. An excerpt:
We began by synthesizing antirhamnose affinity probes consisting of α-O/α-S and β-S rhamnose glycosides functionalized with a propargyl group for CuAAC-mediated coupling to a biotin TBD (compounds 1–3, Figure 1A and Scheme S1). This enabled rhamnose immobilization onto streptavidin surfaces and subsequent antibody binding studies. We used biolayer interferometry (BLI) to estimate and compare the apparent affinity of serum polyclonal antirhamnose antibodies for each rhamnose affinity probe (Figure 1B). […] Next, biosensors were submerged in a buffer containing free rhamnose competitor, and dissociation kinetics were measured (Figure 1B, Dissociation). The dissociation buffer contained 100 mM rhamnose competitor to inhibit avidity-based antibody rebinding, which interferes with koff measurements. […] In the context of proximity-inducing molecule development, this low monovalent sugar-binding affinity will ultimately limit ternary complex formation. […] The confirmation of low affinity binding also supports why multivalency has been historically required to efficiently engage antirhamnose antibodies for tumor-immune proximity induction and engage sugar binding receptors in general.
(§1) Figure 1 Affinity determination of endogenous and monoclonal antibody sources for L-rhamnose glycoside variants. A. Chemical structures of rhamnose affinity probes. B/C. Approximation of antirhamnose antibody binding affinity for probes 1–3 using biolayer interferometry. B. Purified human serum IgG is used to estimate the affinity of endogenous polyclonal serum antirhamnose antibodies for each affinity probe 1–3. C. Monoclonal anti-23F antibody is used to estimate the potential affinity of vaccine-induced antirhamnose antibodies for each affinity probe 1–3. […] Association was monitored for 900 (B) or 600 (C) seconds. The loaded biosensor probe was then dipped into a dissociation solution of 100 mM L-rhamnose for 600 s. Association curves were fit to a two-phase association model in GraphPad Prism using Kfast to calculate kon. Dissociation curves were similarly fit to a two-phase decay using Kfast to calculate koff. TEXT PRINTED IN THE PICTURE: (B) no label printed: Polyclonal Human IgG: Kd ≈ 7 x10^-5 M | (C) no label printed: Monoclonal Anti-23F: Kd ≈ 6 x10^-6 M DOUBTS OF THE COPYIST ABOUT THIS PICTURE: Panel B, Kd ≈ 7 x10^-5 M: printed once in the plot with no link to a single curve, so it is unclear which of (1) α–O, (2) α–S and (3) β–S it applies to / Panel C, Kd ≈ 6 x10^-6 M: printed once in the plot with no link to a single curve, so it is unclear which of (1) α–O, (2) α–S and (3) β–S it applies to […]
(§2) General Notes and Materials […]
(§3) Biolayer Interferometry (BLI) General notes and Materials
(§4) IgG from human serum was purchased from Innovative Research (IHUI GGAP1000MG). Anti -23F antibody was purchased fr om Creative Biolabs (PABX -173). Biolayer Interferometry (BLI) was conducted using a ForteBio Octet Red96, and streptavidin biosensors (Sartorius - 18-5019) or ProG biosensors (Sartorius – 18-5082). For quench, a 5% skim milk (Nestle Carnation Instant Skim Milk) solution in 1X kinetics buffer was used. The instrument was set at 25 °C, with 1000 RPM, and acquisition rate of 5 Hz.
(§5) Each well of a black well plate (Greiner Bio -One - 655086) was filled with 200 µL of appropriate solution.
(§6) Dissociation buffer was comprised of L-rhamnose (100 mM, Sigma Aldrich – R3875-10G) in 1X kinetics buffer to reduce avidity contribution to dissociation rate (koff).
(§7) SDS-PAGE General notes and Materials […]
(§8) Carboxyfluorescein was purchased from Sigma Aldrich (21877 -5G-F). IgG from human serum was purchased from Innovative Research (IHUIGGAP1000MG). Anti -23F antibody was purchased from Creative Biolabs (PABX -173). Laemellie Buffer (2x) was purchased from Sigma Aldrich (S3401 -10VL).
Pre-cast Tris-Glycine Gels (4-20%) were purchased from Fisher Scientific (XP04202BOX). Standard protein ladder was purchased from Bio Rad (1610363). […]

Assay [2] has as its system monoclonal anti-23F antibody. As to the kind of experiment: BLI affinity of rhamnose probes for monoclonal anti-23F. It is filed as binding, human. The following applies: for koff: dissociation in 100 mM L-rhamnose; for anti-23F recognition of glycoside variant: 125 nM anti-23F association.
From the text: as §1
The advancement of synthetic immunotherapeutic modalities targeting anti-rhamnose antibodies has been complicated by a lack of model monoclonal antibody to enable medicinal chemistry optimization. Previous studies relied on polyclonal antirhamnose sources (e.g., human/rabbit serum) for validation studies. We hypothesized that antibodies induced by vaccination against the 23F serotype of streptococcus pneumonia (which contains α-rhamnose) would serve as a source of novel monoclonal antibodies. FDA-approved vaccines (such as PPV23) can induce anti-23F antibodies, with patient-derived monoclonal anti-23F antibody sequences commercially available.[22]−[24] We proceeded to study anti-23F in BLI assays as done in Figure 1B (Figure 1C, association phase = 125 nM anti-23F). […] Furthermore, given the efficient recognition of α-rhamnose by both endogenous human polyclonal and monoclonal antirhamnose sources, it was selected as the ABD for subsequent cARM development.
as §2, §3, §4, §5, §6, §7, §8
Pre-cast Tris-Glycine Gels (4-20%) were purchased from Fisher Scientific (XP04202BOX). […]
A647-alkyne was purchased from Broadpharm (BP-28217). Gels were stained using Coomassie Stain from Bio Rad (1610786), and subsequently imaged using an Odyssey CLX imager. Gels were run at 90V for 15 minutes, followed by […]
ADCC Reporter Assay General notes and Materials […]

Setting [3] is: average of three IgG concentrations, read-out: Avg Kd.
[4] abbreviates: average of three anti-23F concentrations, read-out: Avg Kd.

Structures are written as SMILES. Read-outs that look alike come from different tables or passages of the source.

One may read the kon as the rate constant with which the complex forms. Lower therefore signals slow association. The term koff denotes a measure of how fast the partners let go of each other. The term Kd denotes the concentration at which binding is half-saturated. In the case of `C[C@@H]1O[C@@H](OCc2cn(CCOCCNC(=O)OCCOCCOCCOCCOCCOCCOCCOCCNC(=O)CCCC[C@@H]3SC[C@@H]4NC(=O)N[C@@H]43)nn2)[C@H](O)[C@H](O)[C@H]1O` [compound 1], the kon in assay [1] (26.2 µM IgG) stood at 20749 M⁻¹ s⁻¹; in assay [1] (52.5 µM IgG), 13810 M⁻¹ s⁻¹; in assay [1] (105 µM IgG), 8235 M⁻¹ s⁻¹; in assay [2] (125 nM Anti-23F), 1.1e+06 M⁻¹ s⁻¹; in assay [2] (250 nM Anti-23F), 920000 M⁻¹ s⁻¹; in assay [2] (500 nM Anti-23F), 630000 M⁻¹ s⁻¹. The koff in assay [1] (26.2 µM IgG) is 1.199 s⁻¹; in assay [1] (52.5 µM IgG) it was 1.112 s⁻¹; in assay [1] (105 µM IgG), 1.058 s⁻¹; in assay [2] (125 nM Anti-23F) it was 5.591 s⁻¹; in assay [2] (250 nM Anti-23F), 5.773 s⁻¹; in assay [2] (500 nM Anti-23F), 4.673 s⁻¹. The Kd in assay [1] (26.2 µM IgG, read-out: Kd) is 58 µM; in assay [1] (52.5 µM IgG, read-out: Kd), 81 µM; in assay [1] (105 µM IgG, read-out: Kd), 128 µM; in assay [1] (setting [3]), 89 ± 36 µM; in assay [2] (125 nM Anti-23F, read-out: Kd), 5.2 µM; in assay [2] (250 nM Anti-23F, read-out: Kd), 6.2 µM. Besides, the Kd in assay [2] (500 nM Anti-23F, read-out: Kd) came out at 7.4 µM; in assay [2] (setting [4]), 6.3 ± 1.1 µM. For the same compound, the “anti-23F recognition of glycoside variant” value in assay [2] is on record as “uniquely specific for α-glycoside variants”.
Take `C[C@@H]1O[C@@H](SCc2cn(CCOCCNC(=O)OCCOCCOCCOCCOCCOCCOCCOCCNC(=O)CCCC[C@@H]3SC[C@@H]4NC(=O)N[C@@H]43)nn2)[C@H](O)[C@H](O)[C@H]1O` [compound 2]: the kon in assay [1] (26.2 µM IgG) was found to be 21981 M⁻¹ s⁻¹; in assay [1] (52.5 µM IgG) it was 14298 M⁻¹ s⁻¹; in assay [1] (105 µM IgG), 8194 M⁻¹ s⁻¹; in assay [2] (125 nM Anti-23F), 770000 M⁻¹ s⁻¹; in assay [2] (250 nM Anti-23F), 730000 M⁻¹ s⁻¹; in assay [2] (500 nM Anti-23F), 560000 M⁻¹ s⁻¹. Further, the koff in assay [1] (26.2 µM IgG) came to 1.103 s⁻¹; in assay [1] (52.5 µM IgG), 0.97 s⁻¹; in assay [1] (105 µM IgG), 0.8262 s⁻¹; in assay [2] (125 nM Anti-23F), 4.018 s⁻¹; in assay [2] (250 nM Anti-23F) it was 4.378 s⁻¹; in assay [2] (500 nM Anti-23F), 3.509 s⁻¹. Further, the Kd stood at 50 µM in assay [1] (26.2 µM IgG, read-out: Kd); 68 µM in assay [1] (52.5 µM IgG, read-out: Kd); 101 µM in assay [1] (105 µM IgG, read-out: Kd); 73 ± 26 µM in assay [1] (setting [3]); 5.2 µM in assay [2] (125 nM Anti-23F, read-out: Kd); 6 µM in assay [2] (250 nM Anti-23F, read-out: Kd). Further, the Kd was 6.2 µM in assay [2] (500 nM Anti-23F, read-out: Kd) and 5.8 ± 0.5 µM in assay [2] (setting [4]). For the same compound, the “anti-23F recognition of glycoside variant” value in assay [2] is “uniquely specific for α-glycoside variants”.
